Values after ≈ are worked out from the molar mass of the structure shown. Values joined by “and” are separate entries in the source; they are usually repeats but may differ in a detail not shown here. Identical values can stand only once. “Also recorded” adds a separate entry of the source.
Assays:
[1] = Solubility in bio-relevant media (SGF, FaSSIF, FeSSIF) and water; format: physicochemical; conditions: for Solubility: 37° C.
Protocol: The solubility of Form X was measured in bio-relevant media (SGF, FaSSIF and FeSSIF) and water at 37° C. with 800 rpm for up to 24 hours. About 15 mg of Form X was weighed into sample vials and then 3 mL of three bio-relevant media and water were added to make suspensions, respectively. At 0.5, 2 and 24 hours, about 1 mL of each suspension was filtered, the filtrates were analyzed by HPLC and pH, and the filter cakes were analyzed by XRPD. Duplicate samples were prepared. […] A little higher solubility in FeSSIF was possibly due to the effect of bile salt.

[2] = Solid-state stability (HPLC purity and XRPD); format: physicochemical; conditions: for solid-state stability (form change, purity): 7 days
Protocol: Solid-state stability of Form X was conducted at 60° C. (capped) and 40° C./75% RH (open) for 7 days. The stability sample was dissolved in diluent to prepare solution at ˜1 mg/mL for HPLC purity analysis. Solid samples were analyzed by XRPD to check the crystal form.

[3] = Slurry competition experiments (thermodynamic stability relationship); format: physicochemical; conditions: RT, also in pure water
Protocol: Slurry competition experiments were carried out between anhydrous and hydrates, to establish stability relationships. Appropriate amount of Form I was suspended in different solvents for pre-saturation at RT. Then the filtrate was added into equal amount of different forms, and the mixture was kept stirring at RT for certain time before XRPD tests.

[4] = Slurry conversion of Form I and Form X in solvents (XRPD result); format: physicochemical; conditions: for XRPD Result-Day 3: slurry at 80° C.
Protocol: Appropriate amount of Form I was added into different solvents to make suspensions, which were kept stirring at RT and 50° C. for 3 and 7 days, and at 80° C. for 3 days. Solid samples were collected by centrifugation and analyzed by XRPD. Forms I-IV, VII and VIII were obtained by slurry experiments of Form I.
Appropriate amount of Form X was added into different solvents to make suspensions, which were kept stirring at RT and 50° C. for 3 and 7 days, and at 80° C. for 3 days. Solid samples were collected by centrifugation and analyzed by XRPD.

Hygroscopicity by DVS = format: physicochemical
Protocol: DVS was performed on Form X, to evaluate its hygroscopicity and physical stability under different humidity.
Moisture sorption/desorption data were collected on a DVS instrument. Appropriate amount of sample was placed into a tared sample chamber and automatically weighed. The sample was analyzed with the setting parameters in the table below.

[5] = Solubility estimation at RT by visual observation in selected solvent systems
Protocol: The solubility of compound 1 Form I and Form X was estimated at RT by visual observation in selected solvent systems. Approximately 5 mg solids were weighed into 8 mL glass vial, and then solvent was added stepwise until solids were dissolved completely or a total of solvent volume reached 5 mL.

[6] = Mechanical stability (manual grinding, XRPD); format: physicochemical
Protocol: Appropriate amount of Form X was manually ground by pestle and mortar for about 2 minutes and 5 minutes, and then analyzed by XRPD.

pH solubility profile = format: physicochemical
Protocol: Different pH buffers (pH 1.0, 3.0, 5.0, 6.8 and 9.0) were prepared by method in Table 20. Then 10 mg of Form X was added into 2 mL of different buffers (pH=1.0, 3.0, 5.0, 6.8 and 9.0) to make suspensions. The suspensions were kept shaking with a speed of 1000 rpm at 25° C. for 4 and 24 hours. At each point, the suspensions were centrifuged, and the supernatant was inspected by HPLC/pH, and the wet cakes were analyzed by XRPD. Duplicate samples were prepared.

[7] = slurry at 50° C., Acetone/water (1/3)
[8] = slurry at 50° C., MeOH/Water (1/4)
[9] = slurry at RT, Acetone/water (1/3)

## [2H]C([2H])(Oc1cc(C)n(-c2c(C)cnc(-n3ccc(C(C)(C)O)n3)c2F)c(=O)c1Cl)c1ncc(F)cc1F [Form X]
[1]; 0.5/2/24 h, all media (SGF, FaSSIF, FeSSIF, water)
  XRPD of filter cake after solubility test: ^a Form X remained unchanged during solubility test in all media
[1]; FaSSIF, 0.5 h
  Solubility: 69 µg/mL (≈ 132 µM)
[1]; FaSSIF, 2 h
  Solubility: 70 µg/mL (≈ 134 µM)
[1]; FaSSIF, 24 h
  Solubility: 74 µg/mL (≈ 142 µM)
[1]; FeSSIF, 0.5 h
  Solubility: 97 µg/mL (≈ 186 µM)
[1]; FeSSIF, 2 h
  Solubility: 97 µg/mL (≈ 186 µM)
[1]; FeSSIF, 24 h
  Solubility: 124 µg/mL (≈ 238 µM)
[1]; SGF, 0.5 h
  Solubility: 74 µg/mL (≈ 142 µM)
[1]; SGF, 2 h
  Solubility: 70 µg/mL (≈ 134 µM)
[1]; SGF, 24 h
  Solubility: 66 µg/mL (≈ 126 µM)
[1]; Water, 0.5 h
  Solubility: 74 µg/mL (≈ 142 µM)
[1]; Water, 2 h
  Solubility: 74 µg/mL (≈ 142 µM)
[1]; Water, 24 h
  Solubility: 70 µg/mL (≈ 134 µM)
[1]; all media, XRPD of filter cake
  crystal form after solubility test: remained unchanged
[2]; 40° C./75% RH (open), 1 week
  Stability (physical): Physically stable at 40° C./75% RH (open)
  XRPD Result: Form X
[2]; 40° C./75% RH (open), 1 week, duplicate samples
  Purity (area %): 99.94 area % and 99.93 area %
[2]; 40° C./75% RH (open)
  solid-state stability (form change, purity): physically and chemically stable; also recorded: No form change or purity decrease
[2]; 60° C. (capped), 1 week
  XRPD Result: Form X
[2]; 60° C. (capped), 1 week, duplicate samples
  Purity (area %): 99.93 area % and 99.94 area %
[2]; 60° C. (capped)
  solid-state stability (form change, purity): physically and chemically stable; also recorded: No form change or purity decrease
[2]; 60° C., 1 week
  Stability (physical): Physically stable at 40° C./75% RH (open)
[2]; Initial
  Purity (area %): 99.94 area %
  XRPD Result: Form X
[3]
  thermodynamic stability in slurry competition of anhydrous forms and hydrates: thermodynamically more stable even in pure water at room temperature; also recorded: thermodynamically stable even in pure water
[4]; [7]
  XRPD Result Day 3: Form X
  XRPD Result Day 7: Form X
[4]; slurry at 50° C., IPA
  XRPD Result Day 3: Form X
  XRPD Result Day 7: Form X
[4]; slurry at 50° C., IPE
  XRPD Result Day 3: Form X
  XRPD Result Day 7: Form X
[4]; slurry at 50° C., MTBE
  XRPD Result Day 3: Form X
  XRPD Result Day 7: Form III
[4]; [8]
  XRPD Result Day 3: Form X
  XRPD Result Day 7: Form X
[4]; slurry at 50° C., Toluene
  XRPD Result Day 3: Form X
  XRPD Result Day 7: Form X
[4]; slurry at 50° C., Water
  XRPD Result Day 3: Form X
  XRPD Result Day 7: Form X
[4]; CYH
  XRPD Result-Day 3: Form X
[4]; Heptane
  XRPD Result-Day 3: Form X
[4]; IPA/Water (1/2)
  XRPD Result-Day 3: Clear
[4]; IPA/Water (1/3)
  XRPD Result-Day 3: Form X
[4]; IPAc/Heptane (1/2)
  XRPD Result-Day 3: Form X
[4]; MeCYH
  XRPD Result-Day 3: Form X
[4]; Water
  XRPD Result-Day 3: Form X
[4]; [9]
  XRPD Result Day 3: Form X
  XRPD Result Day 7: Form X
[4]; slurry at RT, EtOH
  XRPD Result Day 3: Clear
  XRPD Result Day 7: Clear
[4]; slurry at RT, IPA
  XRPD Result Day 3: Form X
  XRPD Result Day 7: Form X
[4]; slurry at RT, IPAc
  XRPD Result Day 3: Form X
  XRPD Result Day 7: Form X
[4]; slurry at RT, IPE
  XRPD Result Day 3: Form X
  XRPD Result Day 7: Form X
[4]; slurry at RT, MIBK
  XRPD Result Day 3: Form X
  XRPD Result Day 7: Form X
[4]; slurry at RT, MTBE
  XRPD Result Day 3: Form III
  XRPD Result Day 7: Form III
[4]; slurry at RT, MeOH/water (1/4)
  XRPD Result Day 3: Form X
  XRPD Result Day 7: Form X
[4]; slurry at RT, Toluene
  XRPD Result Day 3: Form X
  XRPD Result Day 7: Form X
[4]; slurry at RT, Water
  XRPD Result Day 3: Form X
  XRPD Result Day 7: Form X
Hygroscopicity by DVS
  XRPD after DVS: No change
Hygroscopicity by DVS; DVS
  hygroscopicity: non-hygroscopic
Hygroscopicity by DVS; DVS, 80% RH
  water uptake: 0.11%
Hygroscopicity by DVS; DVS, 90% RH
  water uptake: 0.16%
Hygroscopicity by DVS; after DVS test
  crystal form after DVS test: remained unchanged
Hygroscopicity by DVS; at 80% RH
  DVS Wt. Gain %: 0.11%
Hygroscopicity by DVS; at 90% RH
  DVS Wt. Gain %: 0.16%
Hygroscopicity by DVS; classification in words
  Hygroscopicity (DVS): non-hygroscopic
[5]
  estimated solubility compared with Form I: decreased solubility in some solvents
[6]; manual grinding
  Crystallinity after manual grinding: with slight crystallinity decrease after
[6]; manually ground about 2 and 5 minutes
  crystal form after grinding: remained unchanged with slight crystallinity decrease
pH solubility profile; 4/24 h, all pH buffers
  XRPD of wet cake after pH solubility test: Unchanged
pH solubility profile; XRPD of wet cake
  crystal form after pH solubility test: remained unchanged
pH solubility profile; pH 1.0, 25° C., 4 h
  Solubility (1T/2T, mg/mL): 0.074 mg/mL (≈ 142 µM)
pH solubility profile; pH 1.0, 25° C., 24 h
  Solubility (1T/2T, mg/mL): 0.075 mg/mL (≈ 144 µM)
pH solubility profile; pH 1.0-9.0 buffers, 25° C.
  pH-dependence of solubility: no pH-dependence
pH solubility profile; pH 3.0 buffer, 25° C., 4 h
  Solubility (1T/2T, mg/mL): 0.060 mg/mL (≈ 115 µM)
pH solubility profile; pH 3.0 buffer, 25° C., 24 h
  Solubility (1T/2T, mg/mL): 0.073 mg/mL (≈ 140 µM)
pH solubility profile; pH 5.0 buffer, 25° C., 4 h
  Solubility (1T/2T, mg/mL): 0.061 mg/mL (≈ 117 µM)
pH solubility profile; pH 5.0 buffer, 25° C., 24 h
  Solubility (1T/2T, mg/mL): 0.060 mg/mL (≈ 115 µM)
pH solubility profile; pH 6.8 buffer, 25° C., 4 h
  Solubility (1T/2T, mg/mL): 0.060 mg/mL (≈ 115 µM)
pH solubility profile; pH 6.8 buffer, 25° C., 24 h
  Solubility (1T/2T, mg/mL): 0.060 mg/mL (≈ 115 µM)
pH solubility profile; pH 9.0 buffer, 25° C., 4 h
  Solubility (1T/2T, mg/mL): 0.060 mg/mL (≈ 115 µM)
pH solubility profile; pH 9.0 buffer, 25° C., 24 h
  Solubility (1T/2T, mg/mL): 0.062 mg/mL (≈ 119 µM)

From patent US20240182449A1, “CRYSTALLINE FORMS OF AN MK2 INHIBITOR” (XinThera, Inc., priority 2022, published 2024)
